Measured values as given in US10676431B2, “Phenylpyrrolidinone formyl peptide 2 receptor agonists” (BRISTOL-MYERS SQUIBB COMPANY, priority 2018, dated 2020).

Tests used:
human FPR1 = human FPR1 (Homo sapiens (Human), UniProt P21462); assay: FPR1 cyclic adenosine monophosphate (cAMP) assay; format: cell-based; settings: CHO cells overexpressing human FPR1; forskolin 10 μM, IBMX 200 μM; inhibition of cAMP production, HTRF; read-out: hFPR1 cAMP EC50
Description: FPR2 and FPR1 Cyclic Adenosine Monophosphate (cAMP) Assays. A mixture of forskolin (5 μM final for FPR2 or 10 μM final for FPR1) and IBMX (200 μM final) were added to 384-well Proxiplates (Perkin-Elmer) pre-dotted with test compounds in DMSO (1% final) at final concentrations in the range of 0.020 nM to 100 μM. Chinese Hamster Ovary cells (CHO) overexpressing human FPR1 or human FPR2 receptors were cultured in F-12 (Ham's) medium supplemented with 10% qualified FBS, 250 μg/ml zeocin and 300 μg/ml hygromycin (Life Technologies). Reactions were initiated by adding 2,000 human FPR2 cells per well or 4,000 human FPR1 cells per well in Dulbecco's PBS (with calcium and magnesium) (Life Technologies) supplemented with 0.1% BSA (Perkin-Elmer). The reaction mixtures were incubated for 30 min at room temperature. The level of intracellular cAMP was determined using the HTRF HiRange cAMP assay reagent kit (Cisbio) according to manufacturer's instruction. Solutions of cryptate conjugated anti-cAMP and d2 fluorophore-labelled cAMP were made in a supplied lysis buffer separately. Upon completion of the reaction, the cells were lysed with equal volume of the d2-cAMP solution and anti-cAMP solution. […] The potency and activity of a compound to inhibit cAMP production was then determined by fitting to a 4-parametric logistic equation from a plot of cAMP level versus compound concentrations.

human FPR2 = human FPR2 (Homo sapiens (Human), UniProt P25090); assay: FPR2 cyclic adenosine monophosphate (cAMP) assay; format: cell-based; settings: CHO cells overexpressing human FPR2; forskolin 5 μM, IBMX 200 μM; inhibition of cAMP production, HTRF; read-out: hFPR2 cAMP2 EC50
Sequence of human FPR2 (P25090 whole entry): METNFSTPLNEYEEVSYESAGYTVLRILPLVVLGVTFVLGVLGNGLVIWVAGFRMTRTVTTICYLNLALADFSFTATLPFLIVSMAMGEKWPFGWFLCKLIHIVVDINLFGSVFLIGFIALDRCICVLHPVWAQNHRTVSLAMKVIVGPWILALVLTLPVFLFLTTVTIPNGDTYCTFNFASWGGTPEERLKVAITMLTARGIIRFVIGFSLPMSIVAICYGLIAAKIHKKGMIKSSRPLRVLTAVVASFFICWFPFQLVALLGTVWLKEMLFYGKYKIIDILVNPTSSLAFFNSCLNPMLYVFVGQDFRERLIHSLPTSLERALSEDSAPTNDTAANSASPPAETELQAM
Description: FPR2 and FPR1 Cyclic Adenosine Monophosphate (cAMP) Assays. A mixture of forskolin (5 μM final for FPR2 or 10 μM final for FPR1) and IBMX (200 μM final) were added to 384-well Proxiplates (Perkin-Elmer) pre-dotted with test compounds in DMSO (1% final) at final concentrations in the range of 0.020 nM to 100 μM. Chinese Hamster Ovary cells (CHO) overexpressing human FPR1 or human FPR2 receptors were cultured in F-12 (Ham's) medium supplemented with 10% qualified FBS, 250 μg/ml zeocin and 300 μg/ml hygromycin (Life Technologies). Reactions were initiated by adding 2,000 human FPR2 cells per well or 4,000 human FPR1 cells per well in Dulbecco's PBS (with calcium and magnesium) (Life Technologies) supplemented with 0.1% BSA (Perkin-Elmer). The reaction mixtures were incubated for 30 min at room temperature. The level of intracellular cAMP was determined using the HTRF HiRange cAMP assay reagent kit (Cisbio) according to manufacturer's instruction. Solutions of cryptate conjugated anti-cAMP and d2 fluorophore-labelled cAMP were made in a supplied lysis buffer separately. Upon completion of the reaction, the cells were lysed with equal volume of the d2-cAMP solution and anti-cAMP solution. After a 1-h room temperature incubation, time-resolved fluorescence intensity was measured using the Envision (Perkin-Elmer) at 400 nm excitation and dual emission at 590 nm and 665 nm. A calibration curve was constructed with an external cAMP standard at concentrations ranging from 1 μM to 0.1 pM by plotting the fluorescent intensity ratio from 665 nm emission to the intensity from the 590 nm emission against cAMP concentrations. The potency and activity of a compound to inhibit cAMP production was then determined by fitting to a 4-parametric logistic equation from a plot of cAMP level versus compound concentrations.

Sequence of human FPR1 (P21462 whole entry): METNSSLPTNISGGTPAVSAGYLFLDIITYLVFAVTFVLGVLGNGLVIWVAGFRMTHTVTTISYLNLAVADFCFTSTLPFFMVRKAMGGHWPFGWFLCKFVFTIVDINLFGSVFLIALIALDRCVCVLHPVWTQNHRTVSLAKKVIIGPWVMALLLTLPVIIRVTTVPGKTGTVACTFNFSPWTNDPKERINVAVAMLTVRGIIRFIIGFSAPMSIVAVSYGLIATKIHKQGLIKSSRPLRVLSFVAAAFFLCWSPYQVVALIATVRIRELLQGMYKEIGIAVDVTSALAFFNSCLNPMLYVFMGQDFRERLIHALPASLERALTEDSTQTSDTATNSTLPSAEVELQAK

| EC50 (human FPR1) | EC50 (human FPR2) | SMILES |
| --- | --- | --- |
| 700 nM | 8.2 nM | CS(=O)(=O)Nc1ncccc1-c1ccc(N2CC[C@@H](NC(=O)Nc3ccc(Cl)cc3F)C2=O)c(F)c1F [Example 23] |
| 7700 nM | 7.5 nM | CP(C)(=O)c1ccccc1-c1ccc(N2CC[C@@H](NC(=O)Nc3ncc(Cl)cc3F)C2=O)c(F)c1F [Example 56] |
| 120 nM | 3.3 nM | CS(=O)(=O)Nc1ccccc1-c1ccc(N2CC[C@@H](NC(=O)Nc3ccc(C(F)(F)F)cc3F)C2=O)c(C2CC2)c1 [Example 43] |
| 45 nM | 1.2 nM | CP(C)(=O)c1ccccc1-c1ccc(N2CC[C@@H](NC(=O)Nc3ccc(Cl)cc3F)C2=O)c(Cl)c1Cl [Example 78] |
| 1700 nM | 0.93 nM | CS(=O)(=O)Nc1ccccc1-c1ccc(N2CC[C@@H](NC(=O)Nc3c(F)cc(Cl)cc3F)C2=O)c(F)c1F [Example 4] |
| 110 nM | 0.5 nM | CC(C)c1cc(-c2ccccc2NS(C)(=O)=O)ccc1N1CC[C@@H](NC(=O)Nc2ccc(Cl)cc2F)C1=O [Example 27] |
| 780 nM | 12 nM | CP(C)(=O)c1ncncc1-c1ccc(N2CC[C@@H](NC(=O)Nc3ccc(C(F)(F)F)cc3F)C2=O)c(F)c1F [Example 93] |
| 57 nM | 0.58 nM | CS(=O)(=O)c1ccccc1-c1ccc(N2C(=O)[C@H](NC(=O)Nc3ccc(C(F)(F)F)cc3F)C[C@H]2CO)c(F)c1F [Example 39] |
| 640 nM | 14 nM | CC(N)c1cccc(-c2ccc(N3CC[C@@H](NC(=O)Nc4ccc(Cl)cc4F)C3=O)c(F)c2F)c1 (stereo partly shown) [Example 50] |
| 5.1 nM | 0.62 nM | CP(C)(=O)c1c(F)cccc1-c1ccc(N2CC[C@@H](NC(=O)Nc3ccc(Cl)cc3F)C2=O)c(F)c1Cl [Example 85] |
| 61 nM | 1.2 nM | CP(C)(=O)c1ccccc1-c1ccc(N2C(=O)[C@H](NC(=O)Nc3ccc(C(F)(F)F)cc3F)C[C@H]2CN2CCOCC2)c(F)c1F [Example 131] |
| 500 nM | 3.6 nM | O=C(Nc1ccc(C(F)(F)F)cc1)N[C@@H]1CCN(c2ccc(-c3ccccc3CO)c(F)c2F)C1=O [Example 41] |
| 110 nM | 7.2 nM | O=C(Nc1ccc(C(F)(F)F)cc1F)N[C@@H]1CCN(c2ccc(-c3cccc4c3S(=O)(=O)NC4)c(F)c2F)C1=O [Example 97] |
| 54 nM | 0.61 nM | CP(C)(=O)c1c(F)cccc1-c1ccc(N2CC[C@@H](NC(=O)Nc3ccc(C(F)(F)F)cc3F)C2=O)c(F)c1F [Example 72] |
| 890 nM | 1.21 nM | CC1C[C@@H](NC(=O)Nc2ccc(C(F)(F)F)cc2F)C(=O)N1c1ccc(-c2ccccc2P(C)(C)=O)c(F)c1F (stereo partly shown) [Example 116] |
| 3.5 nM | 3.1 nM | CP(C)(=O)c1ccccc1-c1ccc(N2CC[C@@H](NC(=O)Nc3ccc(Cl)cc3F)C2=O)c2c1OC(F)(F)O2 [Example 106] |
| 1500 nM | 33 nM | CC(N)c1cccc(-c2ccc(N3CC[C@@H](NC(=O)Nc4ccc(Cl)cc4)C3=O)c(F)c2F)c1 (stereo partly shown) [Example 22] |
| 290 nM | 2.6 nM | CS(=O)(=O)c1ccccc1-c1ccc(N2CC[C@@H](NC(=O)Nc3ccc(C(F)(F)F)cc3)C2=O)c(F)c1F [Example 11] |
| 120 nM | 12 nM | O=C(Nc1ccc(Cl)cc1)N[C@@H]1CCN(c2ccc(-c3ccccc3F)c(F)c2F)C1=O [Example 16] |
| 550 nM | 9.8 nM | Cn1ccc(-c2ccc(N3CC[C@@H](NC(=O)Nc4ccc(Cl)cc4F)C3=O)c(F)c2F)n1 [Example 28] |
| 1500 nM | 10 nM | CS(=O)(=O)Nc1ccccc1-c1ccc(N2CC[C@@H](NC(=O)Nc3cnc(Cl)cn3)C2=O)c(F)c1F [Example 15] |
| 270 nM | 0.86 nM | CP(C)(=O)c1ccccc1-c1ccc(N2C(=O)[C@H](NC(=O)Nc3ccc(C(F)(F)F)cc3F)C[C@H]2CO)c(F)c1F [Example 114] |
| 42 nM | 3.5 nM | CC(C)c1cc(-c2ccccc2CO)ccc1N1CC[C@@H](NC(=O)Nc2ccc(Cl)cc2F)C1=O [Example 38] |
